# The source made the active and inactive calls. The calls are words filed in the database; no cut-off is given here.
# Key:
# HCCLM3 [1] = assay: Induction of apoptosis in human HCCLM3 cells assessed as cell shrinkage at 20 nM incubated for 24 hrs by DAPI staining based phase contrast microscopic analysis; type: functional
# HCCLM3 [2] = assay: Induction of glycolysis in PC knockout human HCCLM3 cells assessed as intracellular lactate concentration at 10 nM CheKine lactate assay; type: functional, cell-based
# Homo sapiens = organism: Homo sapiens; assay: Binding affinity to recombinant pyruvate carboxylase (unknown origin) assessed as thermal stability at upto 1000 nM by cellular thermal […] assay; settings: dose nM <=1000
# HCCLM3 [3] = assay: Induction of glycolysis in human HCCLM3 cells assessed as decrease in level of malate at 5 nM; type: functional, cell-based
# HCCLM3 [4] = assay: Antitumor activity against human HCCLM3 cells xenografted in NCR-nu/nu mouse assessed reduction in tumor growth at 25 to 50 mg/kg, ip administered alternate days for 21 days and measured 26 days post implantation; type: functional, organism-based; settings: dose 25-50 mg/kg, time 21.0 day
# HCCLM3 [5] = assay: Induction of glycolysis in human HCCLM3 cells assessed as decrease in level of succinate at 5 nM; type: functional, cell-based
# [6] = Antiproliferative activity against human HCCLM3 cells assessed as inhibition of cell growth measured after 48 hrs by MTT assay; type: functional, cell-based; settings: HCCLM3, 48 h
# [7] = Systemic toxicity in NCR-nu/nu mouse bearing human HCCLM3 tumor assessed as pathological change in liver at 25 to 50 mg/kg, ip administered alternate days for 21 days and measured 26 days post implantation by H and E staining based analysis; type: organism-based; settings: in vivo, 504 h, dose 25-50 mg/kg, time 21 day
# [8] = Antitumor activity against human HCCLM3 cells xenografted in NCR-nu/nu mouse assessed wet tumor weight at 25 mg/kg, ip administered alternate days for 21 days and measured 26 days post implantation (Rvb= 1.835 +/- 0.15 g); type: functional; settings: time 21 day
# HCCLM3 [9] = assay: Induction of glycolysis in PC knockout human HCCLM3 cells assessed as intracellular glucose consumption at 10 nM; type: functional, cell-based
# HCCLM3 [10] = assay: Induction of apoptosis in human HCCLM3 cells assessed as decrease in cell viability at 20 to 40 nM incubated for 48 hrs in presence of 2 mM OAA MTT assay; type: functional, cell-based; settings: dose 20-40 nM
# HCCLM3 [11] = assay: Induction of apoptosis in human HCCLM3 cells assessed as cell rounding at 20 nM incubated for 24 hrs by DAPI staining based phase contrast microscopic analysis; type: functional
# HepG2 [12] = assay: Inhibition of pyruvate carboxylase in human HepG2 cells measured at 10 nM upto 24 hrs; type: cell-based; settings: time hrs <=24
# HCCLM3 [13] = assay: Inhibition of epithelial-mesenchymal transition in human HCCLM3 cells assessed as upregulation of E-cadherin expression at 0.05 to 1 nM incubated for 24 hrs by Western blot analysis; type: functional, cell-based; settings: dose 0.05-1 nM
# HCCLM3 [14] = assay: Induction of glycolysis in human HCCLM3 cells assessed as decrease in level of L-lactate at 5 nM; type: functional, cell-based
# [15] = molecular target: AMP-activated protein kinase, AMPK (Homo sapiens) (UniProt P54646+O43741+P54619+Q9UGJ0+Q9Y478+Q13131+Q9UGI9); assay: Activation of AMPK pathway in human HCCLM3 cells assessed as increase in AMPK phosphorylation level at 5 nM measured after 1 hr by Western blot analysis; type: cell-based; settings: filed as activator
# HCCLM3 [16] = assay: Induction of apoptosis in human HCCLM3 cells transfected with PC-flag plasmid assessed as reduction in cell viability at 20 to 100 nM incubated for 24 hrs by MTT assay; type: functional, cell-based; settings: dose 20-100 nM
# HepG2 [17] = assay: Induction of apoptosis in human HepG2 cells assessed as cell shrinkage at 100 nM incubated for 24 hrs by DAPI staining based phase contrast microscopic analysis; type: functional
# SK-HEP1 [18] = assay: Inhibition of mesenchymal transition in human SK-HEP1 cells overexpressing PC assessed as effect on fibronectin expression; type: functional, cell-based
# HCCLM3 [19] = assay: Inhibition of mitochondrial oxidative stress in PC knockout human HCCLM3 cells assessed as reduction in NADH/NAD ratio at 10 nM; type: functional, cell-based
# HepG2 [20] = assay: Induction of apoptosis in human HepG2 cells xenografted in NCR-nu/nu mouse assessed as increase in total apoptotic cells in tumor at 50 mg/kg, ip administered alternate days for 21 days and measured 26 days post implantation by TUNEL staining based confocal microscopic analysis; type: functional, organism-based; settings: time 21.0 day
# SK-HEP1 [21] = assay: Antiproliferative activity against human SK-HEP1 cells transfected with PC-flag plasmid assessed as reduction in cell viability incubated for 48 hrs by MTT assay; type: functional, cell-based
# HCCLM3 [22] = assay: Antiinvasive activity against human HCCLM3 cells assessed as reduction in cell invasion at 0.05 to 1 nM by matrigel transwell assay; type: functional, cell-based; settings: dose 0.05-1 nM
# HCCLM3 [23] = assay: Antimigratory activity in human HCCLM3 cells assessed as inhibition of scratch closure at 0.05 to 1 nM measured after 24 hrs by wound healing assay; type: functional, cell-based; settings: dose 0.05-1 nM
# [24] = Systemic toxicity in NCR-nu/nu mouse bearing human HCCLM3 tumor assessed as pathological change in lung at 25 to 50 mg/kg, ip administered alternate days for 21 days and measured 26 days post implantation by H and E staining based analysis; type: organism-based; settings: in vivo, 504 h, dose 25-50 mg/kg, time 21 day
# HCCLM3 [25] = assay: Induction of glycolysis in human HCCLM3 cells assessed as decrease in level of fumarate at 5 nM; type: functional, cell-based
# HepG2 [26] = assay: Competitive inhibition of recombinant pyruvate carboxylase in human HepG2 cell lysate in presence of Erianin at 20 uM for 120 mins followed by irradiation of 365 nm UV light for 15 min by Native -PAGE analysis; type: subcellular
# HepG2 [27] = assay: Inhibition of pyruvate carboxylase in human HepG2 cells measured at 0.001 to 10 nM for 24 hrs; type: cell-based; settings: dose 0.001-10 nM
# [28] = Inhibition of pyruvate carboxylase in human HepG2 cells measured upto 24 hrs by PC assay kit; type: cell-based
# HepG2 [29] = assay: Induction of apoptosis in human HepG2 cells assessed as increase cleaved PARP level measured after 24 hrs by Western blot analysis; type: functional, cell-based; settings: dose 10-40 nM
# SK-HEP1 [30] = assay: Inhibition of mesenchymal transition in human SK-HEP1 cells overexpressing PC assessed as effect on vimentin expression; type: functional, cell-based
# HCCLM3 [31] = assay: Reversal of H2O2-induced cell death in human HCCLM3 cells at 10 nM pretreated for 24 hrs followed by H2O2 addition and further incubated for 24 hrs in presence of OAA by MTT assay; type: functional, cell-based; settings: time 48.0 hrs
# HCCLM3 [32] = assay: Inhibition of epithelial-mesenchymal transition in human HCCLM3 cells assessed as decrease in fibronectin expression level at 0.05 to 1 nM incubated for 24 hrs by Western blot analysis; type: functional, cell-based; settings: dose 0.05-1 nM
# HCCLM3 [33] = assay: Induction of mitochondrial oxidative stress in human HCCLM3 cells overexpressing PC assessed as accumulation of ROS at 10 nM by DCFH-DA staining based flow cytometry analysis; type: functional, cell-based
# HepG2 [34] = assay: Induction of apoptosis in human HepG2 cells assessed as cell rounding at 100 nM incubated for 24 hrs by DAPI staining based phase contrast microscopic analysis; type: functional
# MHCC97 = assay: Antiproliferative activity against human MHCC97 cells assessed as inhibition of cell growth measured after 48 hrs by MTT assay; type: functional, cell-based; settings: MHCC97, 48 h
smiles,measurement,setting,value
COc1ccc(CCc2cc(OC)c(OC)c(OC)c2)cc1O,Activity,HCCLM3 [1],Active
same,Activity,HCCLM3 [2],Active
same,Activity,Homo sapiens,Active
same,Activity,HCCLM3 [3],Active
same,Activity,HCCLM3 [4],Active
same,Activity,HCCLM3 [5],Active
same,IC50,[6],17.7 nM
same,Activity,[7],Non-Toxic
same,Activity,[8],1.1883 g
same,Activity,HCCLM3 [9],Active
same,Activity,HCCLM3 [10],inactive
same,Activity,HCCLM3 [11],Active
same,inhibition,HepG2 [12],inactive
same,inhibition,HCCLM3 [13],Active
same,Activity,HCCLM3 [14],Active
same,Activity,[15],Active
same,Activity,HCCLM3 [16],inactive
same,Activity,HepG2 [17],Active
same,inhibition,SK-HEP1 [18],inactive
same,inhibition,HCCLM3 [19],Active
same,Activity,HepG2 [20],Active
same,Activity,SK-HEP1 [21],Active
same,Activity,HCCLM3 [22],Active
same,Activity,HCCLM3 [23],Active
same,Activity,[24],Non-Toxic
same,Activity,HCCLM3 [25],Active
same,inhibition,HepG2 [26],Active
same,inhibition,HepG2 [27],inactive
same,IC50,[28],9.35 nM
same,Activity,HepG2 [29],Dose-Dependent Effect
same,inhibition,SK-HEP1 [30],inactive
same,Activity,HCCLM3 [31],Active
same,inhibition,HCCLM3 [32],Active
same,Activity,HCCLM3 [33],inactive
same,Activity,HepG2 [34],Active
same,IC50,MHCC97,386 nM

# Source: ChEMBL document CHEMBL5046245, “Identification of Pyruvate Carboxylase as the Cellular Target of Natural Bibenzyls with Potent Anticancer Activity against Hepatocellular Carcinoma via Metabolic Reprogramming” (J Med Chem, 2022)
